Counter-ions that a name gives are not always drawn. Like-named read-outs stand apart in the source and are kept apart here.
Key:
[1] = Solubility of oxaprozin and its salts; type: physicochemical
Light sensitivity = type: physicochemical

Work on O=C(O)CCc1nc(-c2ccccc2)c(-c2ccccc2)o1 [TRIS salt of oxaprozin, 4,5-diphenyl-2-oxazolepropanoic acid, tris(hydroxymethyl)aminomethanesalt] yielded a solubility [1] of 380 mg/mL.
O=C(O)CCc1nc(-c2ccccc2)c(-c2ccccc2)o1 [oxaprozin, 4,5-diphenyl-2-oxazolepropionic acid] gave a solubility [1] of 1.7 mg/mL.
With O=C([O-])CCc1nc(-c2ccccc2)c(-c2ccccc2)o1.[K+] [potassium salt of oxaprozin, 4,5-diphenyl-2-oxazolepropanoic acid, potassium salt] the solubility ([1]; read-out: Solubility) was 370 mg/mL and the Photosensitivity (Light sensitivity) was “photosensitive material”.
With O=C([O-])CCc1nc(-c2ccccc2)c(-c2ccccc2)o1.[Na+] [sodium salt of oxaprozin, 4,5-diphenyl-2-oxazolepropanoic acid, sodium salt] the solubility ([1]; read-out: Solubility) was 260 mg/mL.

From patent US6030643A, “Potassium, sodium and tris oxaprozin salt pharmaceutical formulations” (priority 1997, dated 2000)
